According to patent US8802405B2, “Ethanologenic Clostridium species, Clostridium coskatii” (Coskata, Inc., priority 2010, dated 2014):

Tests used:
Experiment in all cases: Growth on various substrates (carbon substrate utilization)
[1] = test system: C. ljungdahlii PETC; format: cell-based, Clostridium ljungdahlii PETC; conditions: for Growth on substrate: 1 g/L carbon source, N2:CO2 (80%:20%), OD600
Experimental: (§1) Growth was measured spectrophotometrically at 600 nm (Spectronic 20D; Milton Roy). Carbon substrate utilization was based upon growth after consecutive transfers in media containing 1 g/L of each carbon source. For carbon substrates, screening was performed under an atmosphere of N2: CO2 (80%:20%). A positive growth response was recorded for an OD600 exceeding 0.2 AU. For citrate, additional ^13C-labeled isotope experiments were conducted to determine the nature of products by analysis of final 0.2 μm-filtered product samples by carbon NMR using a Bruker UltraShield Avance 400 MHz nuclear magnetic resonance spectrometer.

[2] = test system: C. ragsdalei; format: cell-based, Clostridium ragsdalei; conditions: for Growth on substrate: 1 g/L carbon source, N2:CO2 (80%:20%), OD600
Experimental: as §1

[3] = test system: C. autoethangenum; format: cell-based, Clostridium autoethanogenum; conditions: for Growth on substrate: C. autoethangenum, 1 g/L carbon source, N2:CO2 (80%:20%), OD600
Experimental: as §1

[4] = test system: C. coskatii PS02; format: cell-based, Clostridium coskatii (PS02); conditions: for Growth on substrate: C. coskatii PS02, 1 g/L carbon source, N2:CO2 (80%:20%), OD600; for Chemoorganotrophic growth on substrate (in words): Clostridium coskatii (PS02)
Experimental: as §1

| SMILES | Growth on substrate [1] | Growth on substrate [2] | Growth on substrate [3] | Growth on substrate [4] | Chemoorganotrophic growth on substrate (in words) [4] | Growth on substrate (in words) [2] | Growth on substrate (in words) [1] | Growth on substrate (in words) ([3]; C. autoethanogenum) |
| --- | --- | --- | --- | --- | --- | --- | --- | --- |
| C[C@H](N)C(=O)O [Alanine] | + (A positive growth response was recorded for an OD600 exceeding 0.2 AU) | + (A positive growth response was recorded for an OD600 exceeding 0.2 AU) | + (A positive growth response was recorded for an OD600 exceeding 0.2 AU) | + (A positive growth response was recorded for an OD600 exceeding 0.2 AU) | growth was observed |  |  |  |
| O=C(O)CCC(=O)C(=O)O [Alpha-ketoglutarate] | + (A positive growth response was recorded for an OD600 exceeding 0.2 AU) | + (A positive growth response was recorded for an OD600 exceeding 0.2 AU) | + (A positive growth response was recorded for an OD600 exceeding 0.2 AU) | + (A positive growth response was recorded for an OD600 exceeding 0.2 AU) | growth was observed |  |  |  |
| N=C(N)NCCC[C@H](N)C(=O)O [Arginine] | + (A positive growth response was recorded for an OD600 exceeding 0.2 AU) |  | + (A positive growth response was recorded for an OD600 exceeding 0.2 AU) | + (A positive growth response was recorded for an OD600 exceeding 0.2 AU) | growth was observed | inability |  |  |
| O=C(O)[C@H](O)[C@@H](O)[C@H](O)[C@H](O)CO [D-Gluconic Acid] | + (A positive growth response was recorded for an OD600 exceeding 0.2 AU) |  | + (A positive growth response was recorded for an OD600 exceeding 0.2 AU) |  | inability |  |  |  |
| O=C(CO)[C@@H](O)[C@H](O)[C@H](O)CO [Fructose] | + (A positive growth response was recorded for an OD600 exceeding 0.2 AU) | + (A positive growth response was recorded for an OD600 exceeding 0.2 AU) | + (A positive growth response was recorded for an OD600 exceeding 0.2 AU) | + (A positive growth response was recorded for an OD600 exceeding 0.2 AU) | growth was observed |  |  |  |
| N[C@@H](CCC(=O)O)C(=O)O [Glutamate] | + (A positive growth response was recorded for an OD600 exceeding 0.2 AU) | + (A positive growth response was recorded for an OD600 exceeding 0.2 AU) | + (A positive growth response was recorded for an OD600 exceeding 0.2 AU) | + (A positive growth response was recorded for an OD600 exceeding 0.2 AU) | growth was observed |  |  |  |
| NC(=O)CC[C@H](N)C(=O)O [Glutamine] | + (A positive growth response was recorded for an OD600 exceeding 0.2 AU) | + (A positive growth response was recorded for an OD600 exceeding 0.2 AU) | + (A positive growth response was recorded for an OD600 exceeding 0.2 AU) | + (A positive growth response was recorded for an OD600 exceeding 0.2 AU) | growth was observed |  |  |  |
| N[C@@H](Cc1c[nH]cn1)C(=O)O [Histidine] | + (A positive growth response was recorded for an OD600 exceeding 0.2 AU) |  | + (A positive growth response was recorded for an OD600 exceeding 0.2 AU) | + (A positive growth response was recorded for an OD600 exceeding 0.2 AU) | growth was observed | inability |  |  |
| O=C(O)/C=C\C(=O)O [Maleic acid] | + (A positive growth response was recorded for an OD600 exceeding 0.2 AU) |  | + (A positive growth response was recorded for an OD600 exceeding 0.2 AU) | + (A positive growth response was recorded for an OD600 exceeding 0.2 AU) |  | inability |  |  |
| O=C(O)CC(O)C(=O)O (stereo not drawn) [Malic acid] | + (A positive growth response was recorded for an OD600 exceeding 0.2 AU) | + (A positive growth response was recorded for an OD600 exceeding 0.2 AU) | + (A positive growth response was recorded for an OD600 exceeding 0.2 AU) | + (A positive growth response was recorded for an OD600 exceeding 0.2 AU) | growth was observed |  |  |  |
| O=C(O)CC(=O)O [Malonic acid] | + (A positive growth response was recorded for an OD600 exceeding 0.2 AU) | + (A positive growth response was recorded for an OD600 exceeding 0.2 AU) | + (A positive growth response was recorded for an OD600 exceeding 0.2 AU) | + (A positive growth response was recorded for an OD600 exceeding 0.2 AU) | growth was observed |  |  |  |
| O=C(O)CC(O)(CC(=O)O)C(=O)O [Na-Citrate] |  |  |  | + (A positive growth response was recorded for an OD600 exceeding 0.2 AU) | growth was observed | inability | inability | inability |
| CC(=O)C(=O)O [Na-Pyruvate] | + (A positive growth response was recorded for an OD600 exceeding 0.2 AU) | + (A positive growth response was recorded for an OD600 exceeding 0.2 AU) | + (A positive growth response was recorded for an OD600 exceeding 0.2 AU) | + (A positive growth response was recorded for an OD600 exceeding 0.2 AU) | growth was observed |  |  |  |
| O=C([O-])CCC(=O)[O-].[Na+].[Na+] [Na-Succinate] | + (A positive growth response was recorded for an OD600 exceeding 0.2 AU) | + (A positive growth response was recorded for an OD600 exceeding 0.2 AU) | + (A positive growth response was recorded for an OD600 exceeding 0.2 AU) | + (A positive growth response was recorded for an OD600 exceeding 0.2 AU) | growth was observed |  |  |  |
| O=C(O)CC(=O)C(=O)O [Oxaloacetic acid] |  |  | + (A positive growth response was recorded for an OD600 exceeding 0.2 AU) | + (A positive growth response was recorded for an OD600 exceeding 0.2 AU) | growth was observed | inability |  |  |
| C=C(OP(=O)(O)O)C(=O)O [Phosphoenol-pyruvate] | + (A positive growth response was recorded for an OD600 exceeding 0.2 AU) | + (A positive growth response was recorded for an OD600 exceeding 0.2 AU) | + (A positive growth response was recorded for an OD600 exceeding 0.2 AU) | + (A positive growth response was recorded for an OD600 exceeding 0.2 AU) | growth was observed |  |  |  |
| C[C@H](O)[C@H](O)[C@@H](O)[C@@H](O)C=O [Rhamnose] | + (A positive growth response was recorded for an OD600 exceeding 0.2 AU) |  | + (A positive growth response was recorded for an OD600 exceeding 0.2 AU) |  | inability |  |  |  |
| OCc1ccccc1O[C@@H]1O[C@H](CO)[C@@H](O)[C@H](O)[C@H]1O [Salicin] | + (A positive growth response was recorded for an OD600 exceeding 0.2 AU) | + (A positive growth response was recorded for an OD600 exceeding 0.2 AU) | + (A positive growth response was recorded for an OD600 exceeding 0.2 AU) | + (A positive growth response was recorded for an OD600 exceeding 0.2 AU) | growth was observed |  |  |  |
| N[C@@H](CO)C(=O)O [Serine] | + (A positive growth response was recorded for an OD600 exceeding 0.2 AU) | + (A positive growth response was recorded for an OD600 exceeding 0.2 AU) | + (A positive growth response was recorded for an OD600 exceeding 0.2 AU) | + (A positive growth response was recorded for an OD600 exceeding 0.2 AU) | growth was observed |  |  |  |
| O=C(O)C1=C[C@@H](O)[C@@H](O)[C@H](O)C1 [Shikimic acid] | + (A positive growth response was recorded for an OD600 exceeding 0.2 AU) | + (A positive growth response was recorded for an OD600 exceeding 0.2 AU) | + (A positive growth response was recorded for an OD600 exceeding 0.2 AU) | + (A positive growth response was recorded for an OD600 exceeding 0.2 AU) | growth was observed |  |  |  |
| OC[C@H]1O[C@@](CO)(O[C@H]2O[C@H](CO)[C@@H](O)[C@H](O)[C@H]2O)[C@@H](O)[C@@H]1O [Sucrose] | + (A positive growth response was recorded for an OD600 exceeding 0.2 AU) | + (A positive growth response was recorded for an OD600 exceeding 0.2 AU) | + (A positive growth response was recorded for an OD600 exceeding 0.2 AU) | + (A positive growth response was recorded for an OD600 exceeding 0.2 AU) | growth was observed |  |  |  |
